Test results taken from patent publication US7413895B2, “DNA encoding neutral amino acid transporter” (Japan Science and Technology Corporation, priority 1998, dated 2008).

How the values were obtained:
P30/OHK cells = test: Proliferation of P30/OHK cells, effect of BCH; type: cell-based, human; settings: expression of 4F2hc not detected
Human Daudi cells = test: Proliferation of Daudi cells with or without BCH; type: cell-based; settings: 20 mM of BCH, 5 days, cell numbers counted
Experimental: (§1) T24 cells derived from human bladder cancer were incubated and maintained in an Eagle's minimal essential medium containing 10% of fetal bovine serum. Human Daudi cells were incubated and maintained in an RPMI medium containing 20% of fetal bovine serum. T24 cells or Daudil cells were incubated in a 24-well plate (800 cells/well) for 5 days in a medium with or without 20 mM of BCH and the cell numbers were counted.

[1] = target: T1, human amino acid transporter LAT1 (Homo sapiens, UniProt Q01650); test: Competitive antagonism test: incorporation of 14C-labeled leucine or phenylalanine into oocytes co-expressing human LAT1 and human 4F2hc in the presence of test substance; type: cell-based; design: expressed in transfected cells; settings: 14C-labeled leucine 20 μM, test substance 2 mM, 30 minutes, choline chloride uptake solution
[2] = system: T24 cells derived from human bladder cancer; test: Inhibition of 14C-leucine incorporation by T24 cells by amino acids and similar substances; type: cell-based; settings: 14C-leucine 20 μM, 2 mM unlabeled compound
[3] = system: rat liver cell line where LAT1 was highly expressed; test: Cell proliferation of cultured rat liver cell line, Cell Counting Kit-8; type: cell-based; settings: 20 mM added to William's medium, incubation for 48 hours
Experimental: A rat liver cell line where LAT1 was highly expressed was incubated on a William's medium, 20 mM of D-leucine or BCH which suppressed the incorporation mediated by LAT1 were added to the medium and, by means of an incubation for 48 hours, cell numbers were investigated using a Cell Counting Kit-8 (manufactured by Dojindo Laboratories). The cell numbers were measured as an absorption at 450 nm (O.D. 450).

Mouse sarcoma 180 cells = test: Survival of ICR mouse after intraperitoneal transplantation of mouse sarcoma 180 cells; type: in vivo; settings: male ICR mouse, sarcoma 180 cells intraperitoneally transplanted, 300 mg/kg for ten days, observation for 19 days
Experimental: Mouse sarcoma 180 cells were intraperitoneally transplanted (1×10^6) to male ICR mouse and, from the next day of the transplantation, BCH which was a inhibitor for the amino acid transporter, D-Leu having a inhibiting effect on amino acid transporter and D-Ala having no inhibiting action thereon were administered at the dose of 300 mg/kg for ten days. After the transplantation, it was confirmed every day whether the mouse was dead or alive.

[4] = target: rat neutral amino acid transporter LAT1 (Rattus norvegicus, UniProt Q63016); test: Inhibition of 14C-leucine incorporation into oocytes injected with rat LAT1 and rat 4F2hc cRNA by amino acids and similar substances; type: cell-based; design: expressed in transfected cells; host or cells: oocytes (Xenopus laevis by the cited method of Kanai and Hediger) injected with rat LAT1 cRNA and rat 4F2hc cRNA; settings: rat LAT1/rat 4F2hc oocytes; 14C-leucine 20 μM, 2 mM unlabeled compound, choline uptake solution
CCRF-SB cells = test: Proliferation of CCRF-SB cells, effect of BCH; type: cell-based, human; settings: expression of 4F2hc not detected
[5] = system: cells where both LAT1 and 4F2hc were strongly expressed; test: Proliferation of cells where both LAT1 and 4F2hc were strongly expressed, effect of BCH; type: cell-based, human
Experimental: as §1

[6] = target: T1, human amino acid transporter LAT1; test: Incorporation of 14C-labeled amino acids into oocytes co-expressing human LAT1 and human 4F2hc; type: cell-based; design: expressed in transfected cells; settings: summary statement of the disclosure
[7] = system: T24 cells derived from human bladder cancer; test: Proliferation of T24 cells with or without BCH; type: cell-based; settings: 20 mM of BCH, 5 days, cell numbers counted
Experimental: as §1

[8] = system: T24 cells derived from human bladder cancer; test: Inhibiting mode of leucine incorporation by T24 cells by BCH, double reciprocal plots; type: cell-based
Experimental: T24 cells derived from human bladder cancer were incubated and maintained in an Eagle's minimal essential medium containing 10% of fetal bovine serum. A test for the incorporation of amino acids into T24 cells was carried out by incubating the T24 cells on a 24-well plate and finished when the state became confluent. The amino acid incorporation test was started by removing the incubating solution and adding a Dulbecco's PBS (manufactured by Gibco) containing ^14C-amino acid and finished by removing it, cooling with ice and washing with a Dulbecco's PBS. After washing, the above was dissolved in 0.1N NaOH and the radioactivity was measured by a liquid scintillation counter.
Dependency of the ^14C-leucine incorporation by T24 cells on the concentration was measured in the absence of BCH, in the presence of 50 μM of BCH and in the presence of 100 μM of BCH and the inhibiting mode was investigated by means of double reciprocal plots.

T1 sequence (Q01650 whole entry): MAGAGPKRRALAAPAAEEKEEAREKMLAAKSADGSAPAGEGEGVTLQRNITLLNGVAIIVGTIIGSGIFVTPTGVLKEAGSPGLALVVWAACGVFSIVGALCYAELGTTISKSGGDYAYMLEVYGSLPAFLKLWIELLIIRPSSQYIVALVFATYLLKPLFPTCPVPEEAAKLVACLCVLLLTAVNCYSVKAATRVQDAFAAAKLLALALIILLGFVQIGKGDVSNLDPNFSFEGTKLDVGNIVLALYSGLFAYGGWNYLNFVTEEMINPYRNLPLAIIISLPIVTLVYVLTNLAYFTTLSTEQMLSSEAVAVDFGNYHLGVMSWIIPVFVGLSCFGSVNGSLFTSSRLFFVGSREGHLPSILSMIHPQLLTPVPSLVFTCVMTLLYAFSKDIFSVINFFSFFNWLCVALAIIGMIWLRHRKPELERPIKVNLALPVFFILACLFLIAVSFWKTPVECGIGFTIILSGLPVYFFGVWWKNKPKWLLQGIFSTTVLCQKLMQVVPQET
T1 sequence (as listed by the source partner): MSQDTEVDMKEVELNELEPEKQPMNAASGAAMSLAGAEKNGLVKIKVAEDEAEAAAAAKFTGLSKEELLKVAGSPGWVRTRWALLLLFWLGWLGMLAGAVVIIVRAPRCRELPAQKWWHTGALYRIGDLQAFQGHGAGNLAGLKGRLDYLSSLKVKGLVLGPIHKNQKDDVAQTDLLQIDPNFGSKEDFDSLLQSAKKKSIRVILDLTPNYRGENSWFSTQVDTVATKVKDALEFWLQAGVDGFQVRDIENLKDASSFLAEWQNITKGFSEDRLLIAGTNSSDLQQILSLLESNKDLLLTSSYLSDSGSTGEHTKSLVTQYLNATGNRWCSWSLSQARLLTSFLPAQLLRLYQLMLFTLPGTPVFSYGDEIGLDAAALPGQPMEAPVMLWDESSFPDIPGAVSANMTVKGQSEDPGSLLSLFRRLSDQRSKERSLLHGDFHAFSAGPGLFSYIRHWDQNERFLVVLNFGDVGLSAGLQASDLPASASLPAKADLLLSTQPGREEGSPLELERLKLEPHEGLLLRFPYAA
Chain of rat neutral amino acid transporter LAT1 (Q63016 whole entry): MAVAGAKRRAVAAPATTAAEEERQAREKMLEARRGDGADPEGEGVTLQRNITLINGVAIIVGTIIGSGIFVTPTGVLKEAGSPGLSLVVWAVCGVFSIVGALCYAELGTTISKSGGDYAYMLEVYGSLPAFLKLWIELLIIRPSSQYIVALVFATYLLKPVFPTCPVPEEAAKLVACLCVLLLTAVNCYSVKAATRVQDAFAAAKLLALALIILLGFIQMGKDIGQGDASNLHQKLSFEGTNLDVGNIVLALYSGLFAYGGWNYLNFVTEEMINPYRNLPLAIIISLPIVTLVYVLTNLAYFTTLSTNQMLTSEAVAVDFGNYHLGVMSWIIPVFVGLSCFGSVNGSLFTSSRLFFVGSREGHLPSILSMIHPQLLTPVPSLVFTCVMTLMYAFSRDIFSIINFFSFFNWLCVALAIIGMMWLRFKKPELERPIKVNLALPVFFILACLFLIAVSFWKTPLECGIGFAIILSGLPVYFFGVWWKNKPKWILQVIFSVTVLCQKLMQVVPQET
Chain of rat neutral amino acid transporter LAT1 (Q794F9 whole entry partner): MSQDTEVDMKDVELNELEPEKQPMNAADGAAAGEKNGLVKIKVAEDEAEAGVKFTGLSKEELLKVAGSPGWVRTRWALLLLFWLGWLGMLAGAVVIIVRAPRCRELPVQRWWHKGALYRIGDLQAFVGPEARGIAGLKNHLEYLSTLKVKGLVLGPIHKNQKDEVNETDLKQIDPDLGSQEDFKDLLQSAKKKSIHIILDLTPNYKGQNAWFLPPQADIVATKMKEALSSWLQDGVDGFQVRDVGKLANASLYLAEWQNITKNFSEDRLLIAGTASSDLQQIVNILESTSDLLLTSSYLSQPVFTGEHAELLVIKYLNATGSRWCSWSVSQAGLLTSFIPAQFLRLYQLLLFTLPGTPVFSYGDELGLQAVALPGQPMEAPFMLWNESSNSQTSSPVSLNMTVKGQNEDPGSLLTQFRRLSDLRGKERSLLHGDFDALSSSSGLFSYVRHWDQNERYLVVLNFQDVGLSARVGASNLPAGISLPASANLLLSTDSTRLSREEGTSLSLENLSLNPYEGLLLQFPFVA

NC1(C(=O)O)CC2CCC1C2 (stereo not shown) [BCH, 2-amino-2-norbornane-carboxylic acid]
effect on proliferation of P30/OHK cells (P30/OHK cells): weak | suppression of proliferation of Daudi cells (Human Daudi cells): rarely showed a suppressing effect | inhibition of incorporation of 14C-labeled leucine mediated by the human LAT1 [1]: inhibited | inhibition of incorporation of 14C-leucine by T24 cells [2]: strongly inhibited | cell numbers (O.D. 450) compared with control group [3]: a reduction in the cell numbers was noted | survival effect (Mouse sarcoma 180 cells): significant survival effect | inhibition of incorporation of 14C-leucine mediated by LAT1 [4]: inhibited | effect on proliferation of CCRF-SB cells (CCRF-SB cells): weak | suppressing effect on proliferation [5]: strong suppressing effect | incorporation in a cell in which human LAT1 and human 4F2hc are co-expressed [6]: confirmed | suppression of proliferation of T24 cells [7]: highly suppressed | inhibiting mode of leucine incorporation ([8]; 0, 50 μM and 100 μM of BCH, double reciprocal plots): competitive inhibition | Ki ([8]; 14C-leucine incorporation, 50 μM and 100 μM of BCH): 156 µM
